We go through two compounds from patent publication US20250188032A1, “NITROGEN-CONTAINING HETEROCYCLIC COMPOUNDS AND USES THEREOF” (BNH RESEARCH CO., LTD., priority 2022, published 2025).

Series [1] concerns C57BL/6J mice barrel cortex (layer 4). The series is described as follows: Synaptic function test: TC EPSC potency and GABA/AMPA ratio in barrel cortex (layer 4). It counts as in vivo. An excerpt: Eight weeks old male C57BL/6J mice were anesthetized with isoflurane during surgery. The mice were then be placed in a stereotaxic frame (RWD Life Science, China). The parietal and the frontal bones were exposed by a sagittal incision of the scalp at the midline from the level of the eyes to the occipital protuberance. A small burr hole was drilled after exposing the skull. The injection cannula was placed at the following coordinates: (Mouse: Bregma −3.30, lateral −1.50, and ventral 0.7 mm). Sterile saline solution (+/−a compound of the present disclosure) was perfused at a constant flow rate of 0.5 μL/h through the injection cannula using a mini-Os pump (DURECT Corporation ALZET Osmotic Pumps, CA). Implantation was done in layer 4 of the barrel cortex ipsilateral. To estimate extent of the diffusion of the injected compound in layer 4 barrel cortex during pump injection, methylene blue was first injected to stain the diffusion area. On average methylene blue diffused to […] away from the injection site (the total area of the barrel cortex region is about 1500 μm). Based on this analysis, the present inventors recorded from barrel cortex area.
2 mg of BnH12001 was dissolved in 800 ul of DMSO and prepared as a stock solution. For oral administration, BnH12001 DMSO stock:PEG400:Saline was mixed in a ratio of 5:55:40 and 200 μl/animal was administered. For the control group, a vehicle in which DMSO:PEG400:Saline was mixed in a 5:55:40 ratio was administered at 200 ul/animal. In the single drug administration test, the compound was administered once a day for about 11 to 12 days at a dose of 1 mg/kg. Dose response test was performed by administering the compound once a day for about 11 to 12 days at doses of 0.03, 0.1, 0.3, 1, 3, and 10 mg/kg. 5 mice were used for the compound administration group and the control group, respectively.
For TC or hippocampus slice preparation. 9 to 10 weeks-old male C57BL/6J mice were anesthetized with isoflurane. Then, the brain was rapidly cooled via transcardial perfusion with ice-cold sucrose-artificial cerebrospinal fluid (aCSF). The brain was removed and placed in ice-cold sucrose aCSF. Paracoronal slices were prepared at an angle of 50° relative to the midline on a ramp at an angle of 10°. Then, slices were incubated in aCSF at 35° C. for 30 minutes to recover. Slices were then incubated in aCSF at room temperature (23 to 25° C.) for 1 to 4 hours before being placed in the recording chamber for experiments. The standard aCSF contains saturated with 95% O2/5% CO2. The brain of the mouse was removed and cut into 400 μm at a 50° angle (mouse at a 55° angle) to attach the cut portion to the vibratome disc to be the bottom. Brain slice was incubated in 35° C. in aCSF solution for 30 minutes, or at RT in aCSF solution for 1 hour.
All electrophysiological experiments were conducted at 27 to 29° C. For electrophysiological experiments, electrodes with […] resistance were used and stimuli were applied to the ventral posteromedial nucleus (VPM) using a concentric bipolar electrode (FHC, Bowdoin, ME). The somatosensory cortex was identified by the presence of barrels under 4× magnification and differential interference contrast (DIC) optics, and by the ability to evoke short and constant latency field excitatory postsynaptic potentials (fEPSPs) by VPM stimulation. Whole-cell voltage-clamp recordings were made from stellate cells (SC) in layer IV of the somatosensory barrel cortex using infrared illumination and differential interference contrast (DIC) optics. The composition of whole cell recording solution is shown as follows:
Whole cell recordings were made using a multiclamp 700A (Molecular devices, Sunnyvale, CA) digitized at 10 kHz and filtered at 2 kHz. […]

The test system of series [2] is 293T cells. The series is described as follows: Cytotoxicity test (CCK-8 cell viability) in 293T cells. Type of series: cell-based, human.
Setting [3] is: Os pump, injected into layer 4 of barrel cortex, 3 μM, 2 weeks, 8-week-old C57BL/6J mice.
[4] abbreviates: oral, 1 mg/kg, 8-week-old C57BL/6J mice.

In the case of `CC1CCC(C(=O)O)CN1C(=O)Cc1ccc(F)cc1Cl` (racemic) [BnH12001, 1-(2-(2-chloro-4-fluorophenyl)acetyl)-6-methylpiperidine-3-carboxylic acid], in series [1] (setting [3]), the “Balance of excitation/inhibition (GABA/AMPA ratio)” value is “maintained” and the “Excitatory TC synaptic potency (TC potency)” value was “significantly increased”. For the same compound, in series [1] (setting [4]), the “Balance of excitation/inhibition (GABA/AMPA ratio)” value was “maintaining the balance of excitation/inhibition” and the “TC synaptic potency in the sensory cortex” value is “increase the TC synaptic potency”. The “TC EPSC potency in the layer 4 barrel cortex” value in series [1] (orally-applied, 3 μM) is “significantly augmented”. In series [2] (0, 0.1, 1, 10, 100 μM, 293T), the “Change in cell viability” value is “no significant change in cell viability”.
On to `C[C@@H]1CC[C@H](C(=O)O)CN1C(=O)Cc1ccc(F)cc1Cl` [BnH12001 enantiomer (3S,6R, 98%<), (3S,6R)-1-(2-(2-chloro-4-fluorophenyl)acetyl)-6-methylpiperidine-3-carboxylic acid], for which, in series [1] (setting [4]), the “Balance of excitation/inhibition (GABA/AMPA ratio)” value is given as “maintaining the balance of excitation/inhibition”; the “Efficacy on TC synaptic potency compared among racemate and enantiomers” value was “highest efficacy”; the “TC synaptic potency in the sensory cortex” value was “increase the TC synaptic potency”. In addition, in series [2] (10 uM, 24 hours co-incubation, 293T cell line, % of control), the “Cell viability test results (CCK) 10 uM” value is given as 99%<. Moreover, the “Cell viability test results (CCK) 100 uM” value in series [2] (100 uM, 24 hours co-incubation, 293T cell line, % of control) was 95%<.
